From publication PMC10793102 (Acta Pharmaceutica Sinica. B, 2023)
Where two headings read alike, the source gives them in different places.

Experiments:
L929 = test: Cell viability assay, protection from necroptosis in L929 cells; format: cell-based, mouse; details: for EC50: Mus musculus, L929, 16 h; for protective effects against cell death of L929 cells induced by TNFα: TNFα 40 ng/mL, 15 h, Fig. 2A
[1] = Metabolic stability in mouse liver microsomes; format: in vitro ADME
FADD−/− Jurkat = test: Cell viability assay, protection from necroptosis in FADD−/− Jurkat cells; format: cell-based; details: Homo sapiens, 16 h
[2] = Metabolic stability in human liver microsomes; format: in vitro ADME
TEL-TRKA fusion = TEL-TRKA fusion (Homo sapiens, UniProt P04629+P41212); test: Anti-proliferation in engineered Ba/F3 cells dependent on TEL-TRKA; format: cell-based; details: read-out: IC50 anti-proliferative effect, TEL-TRKA Ba/F3; 72 h
PK study in mice = format: in vivo; details: male, ICR, mouse, plasma
CYP2C8 = biological target: T1, CYP2C8 (Homo sapiens, UniProt P10632); test: CYP450 inhibition; format: in vitro ADME
T1 sequence (P10632 1-490): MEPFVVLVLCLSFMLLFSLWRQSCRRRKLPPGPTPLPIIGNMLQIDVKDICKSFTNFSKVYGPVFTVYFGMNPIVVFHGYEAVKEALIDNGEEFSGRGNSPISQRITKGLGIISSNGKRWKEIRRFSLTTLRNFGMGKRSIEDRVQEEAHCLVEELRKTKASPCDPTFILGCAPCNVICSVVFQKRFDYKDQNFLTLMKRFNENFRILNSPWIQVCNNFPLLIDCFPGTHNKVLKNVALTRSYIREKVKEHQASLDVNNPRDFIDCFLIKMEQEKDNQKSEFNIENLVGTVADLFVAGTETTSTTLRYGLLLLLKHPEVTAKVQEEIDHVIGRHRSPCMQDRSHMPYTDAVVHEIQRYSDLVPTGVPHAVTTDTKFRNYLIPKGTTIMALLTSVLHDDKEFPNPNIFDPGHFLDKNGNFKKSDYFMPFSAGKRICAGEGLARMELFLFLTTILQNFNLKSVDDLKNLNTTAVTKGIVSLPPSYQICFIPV

hRIPK1 = biological target: T2, hRIPK1 (Homo sapiens, UniProt Q13546); test: In vitro RIPK1 kinase activity assay; format: biochemical; details: Enzymatic IC50s RIPK1, hRIPK1 enzymatic assay
T2 sequence (Q13546 1-671): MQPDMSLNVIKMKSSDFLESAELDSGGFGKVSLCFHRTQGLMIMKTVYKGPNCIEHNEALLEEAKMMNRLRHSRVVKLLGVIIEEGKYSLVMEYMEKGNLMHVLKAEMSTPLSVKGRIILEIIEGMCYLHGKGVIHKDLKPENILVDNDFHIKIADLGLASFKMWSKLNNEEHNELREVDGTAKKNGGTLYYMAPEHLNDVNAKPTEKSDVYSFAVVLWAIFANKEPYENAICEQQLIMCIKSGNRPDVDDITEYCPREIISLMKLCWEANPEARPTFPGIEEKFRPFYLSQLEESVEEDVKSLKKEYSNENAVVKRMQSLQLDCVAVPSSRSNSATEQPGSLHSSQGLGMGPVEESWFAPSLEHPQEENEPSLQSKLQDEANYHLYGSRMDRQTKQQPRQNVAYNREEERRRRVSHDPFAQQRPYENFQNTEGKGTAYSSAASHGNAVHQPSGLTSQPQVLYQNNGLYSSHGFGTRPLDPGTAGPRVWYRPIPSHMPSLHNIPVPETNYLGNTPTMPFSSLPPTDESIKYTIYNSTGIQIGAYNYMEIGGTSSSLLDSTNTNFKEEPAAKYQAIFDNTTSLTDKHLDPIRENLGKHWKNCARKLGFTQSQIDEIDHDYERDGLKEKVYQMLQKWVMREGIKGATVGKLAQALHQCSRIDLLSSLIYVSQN

hRIPK3 = hRIPK3 (Homo sapiens, UniProt Q9Y572); test: In vitro RIPK3 kinase activity assay; format: biochemical
[3] = test system: phosphorylation of RIPK1, RIPK3 and MLKL; test: Western blotting of necroptosis pathway in stimulated HT-29 cells; format: cell-based, human; details: compounds at 5 μmol/L, 4 h
[4] = Cytotoxicity at high concentrations in cell viability assays; format: cell-based
[5] = test system: phosphorylation of RIPK1, RIPK3 and MLKL; test: Western blotting of necroptotic signaling in L929 cells; format: cell-based, mouse
[6] = read-out: EC50 FADD−/− Jurkat T + S
[7] = read-out: EC50 FADD−/− Jurkat TNFα

Sequence of hRIPK3 (Q9Y572 whole entry): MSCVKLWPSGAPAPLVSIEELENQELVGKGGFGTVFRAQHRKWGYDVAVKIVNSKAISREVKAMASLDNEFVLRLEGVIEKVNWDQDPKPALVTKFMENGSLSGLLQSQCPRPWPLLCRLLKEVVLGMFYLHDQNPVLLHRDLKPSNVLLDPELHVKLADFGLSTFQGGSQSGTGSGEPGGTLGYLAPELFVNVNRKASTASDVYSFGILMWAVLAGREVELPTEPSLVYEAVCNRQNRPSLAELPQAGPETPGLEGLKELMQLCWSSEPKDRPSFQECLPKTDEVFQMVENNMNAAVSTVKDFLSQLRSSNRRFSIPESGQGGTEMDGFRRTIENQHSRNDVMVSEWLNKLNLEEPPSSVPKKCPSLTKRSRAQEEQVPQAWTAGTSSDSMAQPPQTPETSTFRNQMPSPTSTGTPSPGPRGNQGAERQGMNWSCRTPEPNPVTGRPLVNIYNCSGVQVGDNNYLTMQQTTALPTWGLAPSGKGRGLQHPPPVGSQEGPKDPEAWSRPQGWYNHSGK
Sequence of TEL-TRKA fusion (P04629 510-781 limits assumed, one chain of several): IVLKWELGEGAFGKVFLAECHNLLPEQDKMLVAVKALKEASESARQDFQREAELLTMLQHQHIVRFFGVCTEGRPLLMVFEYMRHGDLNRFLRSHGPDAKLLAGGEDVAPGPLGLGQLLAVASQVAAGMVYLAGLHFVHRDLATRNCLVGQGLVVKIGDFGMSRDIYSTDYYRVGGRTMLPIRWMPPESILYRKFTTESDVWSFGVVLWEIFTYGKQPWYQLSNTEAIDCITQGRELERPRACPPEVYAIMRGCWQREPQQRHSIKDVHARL

Compound | EC50 (L929; read-out: EC50 L929 TNFα) [nM] | EC50 (FADD−/− Jurkat; [6]) [nM] | EC50 (FADD−/− Jurkat; [7]) [nM] | EC50 (L929; read-out: EC50 L929 T + S) [nM] | AUC(0-inf) (PK study in mice; iv, 1 mg/kg) [ng·h/mL] | AUC(0-t) (PK study in mice; iv, 1 mg/kg) [ng·h/mL] | MRT inf (PK study in mice; iv, 1 mg/kg) [min] | Vd (PK study in mice; iv, 1 mg/kg) [L/kg] | clearance (PK study in mice; iv, 1 mg/kg) [mL/min/kg] | half-life (PK study in mice; iv, 1 mg/kg) [min] | AUC(0-inf) (PK study in mice; po, 10 mg/kg) [ng·h/mL] | AUC(0-t) (PK study in mice; po, 10 mg/kg) [ng·h/mL] | Cmax (PK study in mice; po, 10 mg/kg) [ng/mL] | MRT inf (PK study in mice; po, 10 mg/kg) [min] | Tmax (PK study in mice; po, 10 mg/kg) [min] | bioavailability (PK study in mice; po, 10 mg/kg) [%] | half-life (PK study in mice; po, 10 mg/kg) [min] | other results
CNC(=O)c1ccc2c(c1)ncn2-c1ccc(CNC(=O)c2cc(Cc3ccccc3)n(C)n2)cc1 [compound 20, 1-(4-((5-Benzyl-1-methyl-1H-pyrazole-3-carboxamido)methyl)phenyl)-N-methyl-1H-benzo[d]imidazole-5-carboxamide] | 312 | 44 | 5.1 |  |  |  |  |  |  |  |  |  |  |  |  |  |  | half-life [1]: ~40 min; half-life [2]: ~40 min
C[C@@H](c1ccc(-n2cnc3c(N)ncnc32)cc1)N1Cc2nn(C)c(Cc3ccccc3)c2C1=O [compound 63, (S)-5-(1-(4-(6-Amino-9H-purin-9-yl)phenyl)ethyl)-3-benzyl-2-methyl-5,6-dihydropyrrolo[3,4-c]pyrazol-4(2H)-one] | 0.3 | 0.4 | 0.03 | 1.6 | 644 | 643 | 58.2 | 1.6 | 26.7 | 36.6 | 1730 | 1700 | 714 | 165 | 40.2 | 26.4 | 63 | IC50 (TEL-TRKA fusion): > 1000 nM
Cn1nnc(C(=O)NCc2ccc(-n3cnc4c(N)ncnc43)cc2)c1Cc1ccccc1 [compound 49, N-(4-(6-Amino-9H-purin-9-yl)benzyl)-5-benzyl-1-methyl-1H-1,2,3-triazole-4-carboxamide] | 0.03 | 0.5 | 0.06 | 0.06 | 1420 | 1240 | 630 | 6.98 | 11.7 | 61.8 | 4330 | 4110 | 1220 | 345 | 40.2 | 33.3 | 99 | inhibition of CYP2C8 (in words) (CYP2C8): weakly inhibited CYP2C8; IC50 (hRIPK1): ~6 nM; IC50 (hRIPK3): > 1000 nM
CCN1CCN(Cc2ccc(NC(=O)Nc3ccc(-n4cnc5cc(C(=O)NC)ccc54)cc3)cc2C(F)(F)F)CC1 [compound 12] |  |  |  |  |  |  |  |  |  |  |  |  |  |  |  |  |  | protective effects against cell death of L929 cells induced by TNFα (L929): protective effects similar to 10; phosphorylation of RIPK1 (Western blot) [3]: diminished the phosphorylation of the upstream effector RIPK1; phosphorylation of RIPK3 and MLKL (Western blot) [3]: comparably diminished the phosphorylation of RIPK3 and the downstream MLKL
CCN1CCN(Cc2ccc(NC(=O)Cc3ccc(-n4cnc5cc(C(=O)NC)ccc54)cc3)cc2C(F)(F)F)CC1 [compound 11] | 190 | > 10000 | > 10000 | 713 |  |  |  |  |  |  |  |  |  |  |  |  |  | protective effects against cell death of L929 cells induced by TNFα (L929): protective effects similar to 10; phosphorylation of RIPK1 (Western blot) [3]: diminished the phosphorylation of the upstream effector RIPK1; phosphorylation of RIPK3 and MLKL (Western blot) [3]: comparably diminished the phosphorylation of RIPK3 and the downstream MLKL
C[C@H](NC(=O)c1nnn(C)c1Cc1ccccc1)c1ccc(-n2cnc3c(N)ncnc32)cc1 [compound 58] | < 0.01 | < 0.01 | < 0.01 | < 0.01 |  |  |  |  |  |  |  |  |  |  |  |  |  | cytotoxicity at high concentrations [4]: increased cytotoxicity at higher concentrations
CN1C(=O)[C@@H](NC(=O)c2n[nH]c(Cc3ccccc3)n2)COc2ccccc21 [compound 2, GSK2982772, reference compound] | 1200 | 3.9 | 0.5 | 8280 |  |  |  |  |  |  |  |  |  |  |  |  |  | phosphorylation cascade (Western blot), L929 [5]: inactive even at 1 μmol/L
C[C@H](NC(=O)c1c(Cl)nn(C)c1Cc1ccccc1)c1ccc(-n2cnc3c(N)ncnc32)cc1 [compound 57] | 0.3 | 0.3 | 0.09 | 0.4 |  |  |  |  |  |  |  |  |  |  |  |  |  | cytotoxicity at high concentrations [4]: increased cytotoxicity at higher concentrations
Cn1ncc(C(=O)NCc2ccc(-n3cnc4c(N)ncnc43)cc2)c1Cc1ccccc1 [compound 39, N-(4-(6-Amino-9H-purin-9-yl)benzyl)-5-benzyl-1-methyl-1H-pyrazole-4-carboxamide] | 0.9 | 1 | 0.04 | 3.6 | 882 | 862 | 125 | 2.35 | 18.3 | 48.6 | 2210 | 2190 | 1340 | 153 | 19.8 | 25.4 | 80.4 | inhibition of CYP2C8 (in words) (CYP2C8): weakly inhibited CYP2C8; IC50 (hRIPK1): 9.5 nM; IC50 (hRIPK3): > 1000 nM
C[C@H](NC(=O)c1cnn(C)c1Cc1ccccc1)c1ccc(-n2cnc3c(N)ncnc32)cc1 [compound 54, (S)-N-(1-(4-(6-Amino-9H-purin-9-yl)phenyl)ethyl)-5-benzyl-1-methyl-1H-pyrazole-4-carboxamide] | 0.4 | 0.3 | 0.08 | 0.6 | 672 | 659 | 119 | 2.98 | 25 | 26.4 | 2480 | 2440 | 1200 | 183 | 30 | 37 | 54 | IC50 (hRIPK1): ~6 nM; IC50 (hRIPK3): > 1000 nM
CNC(=O)c1ccc2c(c1)ncn2-c1ccc(CNC(=O)c2ccc(F)n2Cc2ccccc2)cc1 [compound 26] | 6 | 17 | 1.7 | 34 |  |  |  |  |  |  |  |  |  |  |  |  |  | 
Cn1nc(Cl)c(C(=O)NCc2ccc(-n3cnc4c(N)ncnc43)cc2)c1Cc1ccccc1 [compound 48, N-(4-(6-Amino-9H-purin-9-yl)benzyl)-5-benzyl-3-chloro-1-methyl-1H-pyrazole-4-carboxamide] | 0.5 | 0.7 | 0.2 | 4.6 | 1310 | 1300 | 118 | 1.55 | 13.3 | 48.6 | 8400 | 8280 | 3050 | 243 | 25.2 | 63.9 | 83.4 | 
CNC(=O)c1ccc2c(c1)ncn2-c1ccc(CNC(=O)c2cnn(C)c2Cc2ccccc2)cc1 [compound 27] | 20 | 5.2 | 0.5 | 77 |  |  |  |  |  |  |  |  |  |  |  |  |  | half-life [1]: ~40 min; half-life [2]: ~40 min
